Data set [1] deals with FGFR. Nature of the data set: RTK-Assay (ELISA, chemiluminescence). The format is biochemical. On the procedure: To determine the IC50 of receptor-tyrosine-kinase an assay based on the ELISA-principle using kinases from Biomol (N-terminally fused to GST), POD-coupled antibody from Calbiochem (PY20) and BM chemiluminescence ELISA substrate from Roche was followed.
In short, a white 96 wells microplate was incubated overnight with 100 µl/well of the substrate solution (poly-Glu-Tyr diluted with PBS to 100 µg/ml) at 4 °C. The solution was removed and the plate was washed twice for 2 min with PBS-T. Afterwards the kinase solution (50 µl/well)( KDR (VEGFR2), 5 ng; Flt4 (VEGFR3), 20 ng; EGFR, 5 ng; IGFR, 15 ng; FGFR, 10 ng and Tie2, 20 ng) and the inhibitor solution (25 µl/well) were added to each well. To perform positive and negative control, 5% aqueous DMSO (25 µl/well) were used instead of inhibitor solution. Addition of ATP solution (25 µl/well) started the reaction, whereas 40 mM MnCl2 solution (25 µl/well) was added to the negative control instead of ATP. After incubation under mild shaking conditions for 30 min at rt the plate was washed with PBS-T (3 x 2 min) and subsequently incubated with antibody solution (anti-Phosphotyrosine-antibody (POD-coupled) diluted 1:10.000 in PBS-T + 0,2% (m/v) BSA)(100 µl/well) for 1 h again while shaking. In the end the plate was washed with PBS-T (3x5 min) and provided with the chemiluminescence substrate (50 µl/well). After 3 min the occurring luminescence was measured using a luminometer. […] For determination of IC50 values, the relative luminescence units per second (RLU/s) were blotted against the inhibitor concentrations. In doing so each concentration measurement was done triplicate and at least 5 different inhibitor concentrations were used to determine IC50 value.
This assay is based on the ELISA-principle using kinases from Biomol (N-terminally fused to GST), POD-coupled antibody from Calbiochem (PY20) and BM chemiluminescence ELISA substrate from Roche. […]
For determination of IC50 values, the relative luminescence units per second (RLU/s) were blotted against the inhibitor concentrations. […]

For data set [2], the system named is H2B-GFP/mRFP-αTubulin HeLa cells. Nature of the data set: Time-lapse video microscopy of live cells. It counts as cell-based, human. The conditions noted are these: 40 µM. As for the experimental part: Upon treatment, living cells were added to a humidified chamber at 37 °C with 5% CO2 attached to a Carl Zeiss microscope (SN:3834000366) equipped with a Hamamatsu EM-CCD digital camera, controlled by AxioVision 4.6 software. Cells were imaged every 3 or 4.5 min (depending on the number of fields filmed) for over 16 h-24 h. Images were taken with the AxioCam MRm 426205 objective and processed using AxioVision software.
The increase in the proportion of cells with more than 2n DNA content could be due to several causes: several cycles of DNA replication or cytokinesis errors as shown for cells treated with other Aurora inhibitors. To determine the primary cause for the phenotype produced by (C) and examine whether (A) may interfere with mitosis, we examined live cells by time-lapse video microscopy. To visualize DNA and microtubules we used a HeLa stable cell line expressing H2B-GFP and mRFP-αTubulin. […] The resulting time-lapse images were used to determine the following parameters: (1) the percentage of cell death among non dividing cells (Figure 4A), (2) the percentage of cells entering mitosis (Figure 4B), (3) the outcome of mitosis: normal division (cell division), return to interphase without chromatin segregation and without dividing (no division), cytokinesis failure (division errors), cell death without resolving mitosis (cell death) (Figure 4C), and (4) the length of time spent in mitosis (TIM), defined as the interval between DNA condensation and anaphase resolution (Figure 4D).

Entries after “also recorded” stand apart in the source; their conditions may differ.

Compound `CC(C)Nc1nc(-c2ccco2)nc2ccc(C#CCO)cc12` [Compound (C), 3-(2-(Furan-2-yl)-4-(isoiproipylamino)quinazolin-6-yl)prop-2-yn-l-ol] came in with an IC50 in data set [1] above 100 µM. Moreover, in data set [2], the outcome of mitosis is “unable to align their chromosomes and died without entering a new interphase; also recorded: died without returning to interphase or right after an asymmetric segregation”; the “time spent in mitosis (TIM), median” value is given as 375 min. For the same compound, the “number of cells entering mitosis” value in data set [2] (16 h-24 h) is given as “reduced”. For the same compound, the cells entered mitosis in data set [2] (time-lapse video microscopy) was found to be 28.8%.
Turning to `CC(C)Nc1nc(-c2ccco2)nc2ccc(/C=C/C(C)(C)O)cc12` [Compound (A), (E)-4-(2-(Furan-2-yl)-4-(isopropylamino)quinazolin-6-yl)-2-methylbut-3-en-2-ol], the IC50 in data set [1] is above 100 µM. For the same compound, in data set [2], the “cell death among non dividing cells / cell viability” value is “increased cell death rate; also recorded: massive cell death; also recorded: strong effect on cell viability independent of mitosis” and the outcome of mitosis is given as “completed it successfully”.

As a reminder, the IC50 is the concentration that inhibits the measured activity by half. A lower IC50 goes with greater potency.

(Values after patent publication EP2241565A1, “Aurora kinase inhibitors compounds” (Universität Leipzig, priority 2009, dated 2010).)
